Measurements from patent US20040009507A1, “Concatenated nucleic acid sequence” (Domantis, Ltd., priority 2000, published 2004).
Positions of bridges follow the written chain, without caps; N, C: chain ends. Residues, ends and D or L forms follow the SMILES beside them.

Assays:
EC-EpoR-Fc = target: T1, EC-EpoR-Fc (Homo sapiens, UniProt P19235); experiment: Competition ELISA with synthetic trMP peptide, phage binding to immobilised EC-EpoR-Fc
T1 construct: (EC-EpoR, amino acids 1 to 225); made in house; host or cells: Pichia pastoris X-33 (pPICZαA, secreted)
T1 sequence (P19235 25-249): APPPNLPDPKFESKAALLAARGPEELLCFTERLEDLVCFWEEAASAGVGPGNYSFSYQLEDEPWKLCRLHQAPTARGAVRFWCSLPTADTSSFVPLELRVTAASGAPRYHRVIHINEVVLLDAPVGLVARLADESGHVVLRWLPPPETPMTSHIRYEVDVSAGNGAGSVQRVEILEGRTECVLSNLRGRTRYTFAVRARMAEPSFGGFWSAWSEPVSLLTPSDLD
Description: Without a crystal structure of the MP/Ec-EpoR-Fc complex, it is however unclear whether the contribution of an MP residue in these parts to EC-EpoR-Fc binding is related to direct peptide-receptor interaction or to intra-molecular interactions. In an attempt to delineate the MP peptide binding site on EC-EpoR-Fe, a competition ELISA using a synthetic truncated version of the MP peptide (trMP, from A3 to Y28) was performed. […] A similar result (i.e. binding outside the biological ligand-binding site) has been reported for the symmetrical molecule SB-247464 which recognises the homodimeric G-CSF receptor (Tian et al., 1998). Large and complex proteins with modular architecture indeed appear to have multiple ligand-binding sites located at the slits between symmetrical modules.
For competition ELISA with synthetic trMP peptide (see below), serial dilutions of MP peptide (starting from 1 mM) were mixed with 2.5×10^8 phage in 2% MPBS, then added to pre-blocked EC-EpoR-Fc-coated wells for 2 hours. Bound phage were detected as described above. […] Bound EC-EpoR-Fc was detected with protein A-horseradish peroxidase conjugate ( 1/4000 dilution, Sigma), and o-phenylene diamine dihydrochloride (OPD) as substrate. After 10-15 minutes, the reactions were stopped with 50 μl of 4 N H2SO4 and absorbances were measured at 492 nm.

ferritin = target: T2, ferritin (Equus caballus, UniProt P02791+Q8MIP0); experiment: Apparent dissociation constant of n-unit HKPRKE MBP fusions for ferritin; design: species or system horse; conditions: n-unit of HKPRKE motif fused to maltose-binding protein
T2 construct: ferritin (from horse spleen, Sigma cat. F-4503); purchased Sigma F-4503; host or cells: horse spleen
From the text: In contrast, the results from the Fd-1×6-mer, Fd-2×6-mer, and Fd-4×6-mer peptide libraries indicate that concatenation is crucial to reach the selection threshold for binding to ferritin. […] By competition ELISA, we observed that these peptide constructs had affinities to ferritin very similar to that of peptide F6. […] In a randomised polypeptide, the likelihood that down-mutations will offset up-mutations increases with its length, so that ultimately most longer polypeptides will have average sequence profiles. […]
For competition ELISA with ferritin-binding peptide, serial dilutions of MBP-fusions (see below) were incubated with 10 nM biotinylated ferritin in 2% MPBS overnight at 4° C., then added to pre-blocked MBP-(HKPRKE)8-coated wells for 30 min. Bound biotinylated ferritin was detected by incubation with streptavidin horseradish peroxidase conjugate (Sigma) and OPD.
Apparent dissociation constants were calculated using the BIAevaluation program and the 1:1 Langmuir dissociation model from sensorgrams (BIAcore) collected upon immobilisation of 200-400 resonance units (RU) of biotinylated ligands (sEPOR-Fc or MBP-fusion) on SA-sensor chips followed by injection of various analytes (sEPOR-Fc, MBP-fusion, 0.1 to 2 μM concentration range) diluted in HBS-EP buffer (BIAcore), at a flow rate of 80 μl/min at 25° C.

T2 sequence (P02791 2-175 limits assumed): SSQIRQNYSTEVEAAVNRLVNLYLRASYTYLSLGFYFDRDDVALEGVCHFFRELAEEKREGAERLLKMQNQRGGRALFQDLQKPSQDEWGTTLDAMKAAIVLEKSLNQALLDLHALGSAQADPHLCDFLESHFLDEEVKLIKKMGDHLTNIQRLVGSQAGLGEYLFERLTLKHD
T2 sequence (Q8MIP0 whole entry, the tested form may be a part): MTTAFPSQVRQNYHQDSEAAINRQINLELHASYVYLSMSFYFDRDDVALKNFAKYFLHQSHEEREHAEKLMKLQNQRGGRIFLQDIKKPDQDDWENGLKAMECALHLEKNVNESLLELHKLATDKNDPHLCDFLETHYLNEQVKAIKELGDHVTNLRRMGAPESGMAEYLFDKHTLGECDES

Row | IC50 (EC-EpoR-Fc; read-out: IC50 for blocking MP phage-peptide binding to immobilised EC-EpoR-Fc) | effect on signal of phage displaying the EMP1 peptide (EC-EpoR-Fc; trMP concentration up to 1 mM) | Kd (ferritin) | Compound
1 | 10 µM | no reduction in signal | – | CC(C)C[C@H](NC(=O)[C@@H](NC(=O)[C@H](C)NC(=O)CNC(=O)[C@H](Cc1c[nH]cn1)NC(=O)[C@@H]1CSSC[C@H](NC(=O)[C@H](C)N)C(=O)N[C@@H](Cc2c[nH]cn2)C(=O)NCC(=O)N[C@@H](C)C(=O)N[C@@H]([C@@H](C)O)C(=O)N[C@@H](CC(C)C)C(=O)N[C@@H](CCC(=O)O)C(=O)N[C@@H](CCC(N)=O)C(=O)N[C@@H]([C@@H](C)O)C(=O)N[C@@H](Cc2ccc(O)cc2)C(=O)N[C@@H](C)C(=O)N[C@@H](CC(C)C)C(=O)N2CCC[C@H]2C(=O)N[C@@H](CC(C)C)C(=O)N[C@@H](C)C(=O)N1)[C@@H](C)O)C(=O)N[C@@H](CCC(=O)O)C(=O)N[C@@H](CCC(N)=O)C(=O)N[C@H](C(=O)N[C@@H](Cc1ccc(O)cc1)C(=O)O)[C@@H](C)O [trMP, NH2-ACHGATLEQTYALPL ACHGATLEQTY-CO2H] (H-ACHGATLEQTYALPLACHGATLEQTY-OH; disulfide 2-17 (inferred))
2 | – | – | ~0.5 µM | (HKPRKE)4 [F6 peptide]
